Laboratory results reported in patent US11008334B2, “Compositions and methods for treating cancer” (The Regents of the University of California, priority 2012, dated 2021).
Like-named read-outs stand apart in the source and are kept apart here.

Target: T1, K-RasG12C (1-169) (Homo sapiens, UniProt P01116, G12C)
T1 construct: Un-tagged recombinant K-Ras G12C (1-169) at 4 μM in Buffer A; hexahistidine (cleaved yes); made in house; host or cells: Escherichia coli BL21 (DE)
Test: Mass spectrometric screen for extent of covalent labeling
Assay type: binding
Conditions: for percent covalent labeling at 10 µM: 10 micromolar; for Labeling % (10 micM) 24h: 10 micM compound, (plate) or (single) measurement
Protocol: Un-tagged recombinant K-Ras G12C (1-169) at 4 μM in Buffer A was reacted with inhibitors at 200 μM or 10 μM (2% DMSO final). At 2, 6, and 24 hrs, 10 μL aliquots were removed and the reactions were stopped by addition of 1 μL 2% formic acid. The extent of modification was determined by mass spectrometry.

[1] = 2 h, 2 hrs, read-out: Percent reduction in activity of compound at 10 micromolar relative to control (no compound), 2 hrs
[2] = 6 h, 6 hrs, read-out: Percent reduction in activity of compound at 10 micromolar relative to control (no compound), 6 hrs
[3] = 24 h, 24 hrs, read-out: Percent reduction in activity of compound at 10 micromolar relative to control (no compound), 24 hrs

Compound | percent covalent labeling at 10 µM [1] [%] | percent covalent labeling at 10 µM [2] [%] | percent covalent labeling at 10 µM [3] [%] | Labeling % (10 micM) 24h | Labeling % (10 micM) 24h (Table 5)
C=CS(=O)(=O)NC1CCN(C(=O)COc2ccc(Cl)cc2F)CC1 [Ras-017] | ≤ 5 | ≤ 5 | ≤ 5 | – | –
C=CS(=O)(=O)NC1CCN(C(=O)COc2ccc(Cl)cc2C)CC1 [Ras-018] | ≤ 5 | ≤ 5 | 20 to 40 | – | –
C=CS(=O)(=O)NC1CCN(C(=O)COc2cc(N)c(Cl)cc2Cl)CC1 [Ras-019] | ≤ 5 | ≤ 5 | 5 to 20 | – | –
C=CS(=O)(=O)NC1CCN(C(=O)COc2ccc(Cl)cc2C(=O)OC)CC1 [Ras-020] | ≤ 5 | ≤ 5 | ≤ 5 | – | –
C=CS(=O)(=O)NC1CCN(C(=O)COc2ccc(Cl)cc2C#N)CC1 [Ras-021] | ≤ 5 | ≤ 5 | ≤ 5 | – | –
C=CS(=O)(=O)NC1CCN(C(=O)COc2cc(NC(C)=O)c(Cl)cc2Cl)CC1 [Ras-022] | ≤ 5 | ≤ 5 | ≤ 5 | – | –
C=CS(=O)(=O)NC1CCN(C(=O)COc2ccc(Cl)cc2C(N)=O)CC1 [Ras-023] | ≤ 5 | ≤ 5 | ≤ 5 | – | –
C=CS(=O)(=O)NC1CCN(C(=O)COc2cc(NC)c(Cl)cc2Cl)CC1 [Ras-024] | ≤ 5 | ≤ 5 | ≤ 5 | – | –
C=CS(=O)(=O)NC1CCN(C(=O)COc2ccc(Cl)cc2C(=O)N(C)C)CC1 [Ras-025] | ≤ 5 | ≤ 5 | ≤ 5 | – | –
C=CS(=O)(=O)NC1CCN(C(=O)COc2cc(N(C)C)c(Cl)cc2Cl)CC1 [Ras-026] | ≤ 5 | ≤ 5 | 5 to 20 | – | –
C=CS(=O)(=O)NC1CCN(C(=O)COc2cc(OCCN)c(Cl)cc2Cl)CC1 [Ras-027] | ≤ 5 | ≤ 5 | ≤ 5 | – | –
C=CS(=O)(=O)NC1CCN(C(=O)CNc2ccc(Cl)cc2Cl)CC1 [Ras-028] | ≤ 5 | ≤ 5 | 20 to 40 | +++ (plate) (20%< +++ <=40%) | +++ (plate) (20%< +++ <=40%)
C=CS(=O)(=O)NC1CCN(C(=O)COc2ccc(Cl)cc2N2CCCC2)CC1 [Ras-029] | ≤ 5 | ≤ 5 | ≤ 5 | – | –
C=CS(=O)(=O)NC1CCN(C(=O)COc2ccc(Cl)cc2I)CC1 [Ras-030] | ≤ 5 | ≤ 5 | 40 to 60 | – | –
C=CS(=O)(=O)NC1CCN(C(=O)COc2ccc(Cl)cc2CNC(C)=O)CC1 [Ras-031] | ≤ 5 | ≤ 5 | ≤ 5 | – | –
C=CS(=O)(=O)NC1CCN(C(=O)COc2ccc(Cl)cc2CN)CC1 [Ras-032] | ≤ 5 | ≤ 5 | ≤ 5 | – | –
C=CS(=O)(=O)NC1CCN(C(=O)COc2ccc(Cl)cc2N)CC1 [Ras-033] | ≤ 5 | ≤ 5 | ≤ 5 | – | –
C=CS(=O)(=O)NC1CCN(C(=O)COc2ccc(Cl)cc2N(C)C)CC1 [Ras-034] | ≤ 5 | ≤ 5 | ≤ 5 | – | –
C=CS(=O)(=O)NC1CCN(C(=O)COc2cc(C(N)=O)c(Cl)cc2Cl)CC1 [Ras-035] | ≤ 5 | ≤ 5 | ≤ 5 | – | –
C=CS(=O)(=O)NC1CCN(C(=O)COc2cc(I)c(Cl)cc2Cl)CC1 [Ras-036] | ≤ 5 | 5 to 20 | 40 to 60 | – | –
C=CS(=O)(=O)NC1CCN(C(=O)COc2cc(C(=O)OC)c(Cl)cc2Cl)CC1 [Ras-037] | ≤ 5 | ≤ 5 | 5 to 20 | – | –
C=CS(=O)(=O)NC1CCN(C(=O)COc2cc(C(=O)O)c(Cl)cc2Cl)CC1 [Ras-038] | ≤ 5 | ≤ 5 | ≤ 5 | – | –
C=CS(=O)(=O)NC1CCN(C(=O)COc2cc(O)c(Cl)cc2Cl)CC1 [Ras-039] | ≤ 5 | ≤ 5 | 5 to 20 | – | –

Compound | percent covalent labeling at 10 µM [1] [%] | percent covalent labeling at 10 µM [2] [%] | percent covalent labeling at 10 µM [3] [%] | Labeling % (10 micM) 24h | Labeling % (10 micM) 24h (Table 5)
C=CS(=O)(=O)NC1CCN(C(=O)COc2cc(Br)c(Cl)cc2Cl)CC1 [Ras-040] | ≤ 5 | ≤ 5 | 20 to 40 | – | –
C=CS(=O)(=O)NC1CCN(C(=O)COc2ccc(Cl)cc2OC)CC1 [Ras-041] | ≤ 5 | ≤ 5 | 5 to 20 | – | –
C=CS(=O)(=O)NC1CCN(C(=O)COc2ccc(Cl)cc2C=O)CC1 [Ras-042] | ≤ 5 | ≤ 5 | 5 to 20 | – | –
C=CS(=O)(=O)NC1CCN(C(=O)COc2cc(C(C)=O)c(Cl)cc2Cl)CC1 [Ras-043] | ≤ 5 | ≤ 5 | ≤ 5 | – | –
C=CS(=O)(=O)NC1CCN(C(=O)COc2cc(C(C)O)c(Cl)cc2Cl)CC1 (centres unmarked) [Ras-044] | ≤ 5 | ≤ 5 | 5 to 20 | – | –
C=CS(=O)(=O)NC1CCN(C(=O)COc2cc(-c3nn[nH]n3)c(Cl)cc2Cl)CC1 [Ras-045] | ≤ 5 | ≤ 5 | ≤ 5 | – | –
C=CS(=O)(=O)NC1CCN(C(=O)COc2ccc(Cl)cc2C(=O)N2CCC(NS(=O)(=O)C=C)CC2)CC1 [Ras-046] | ≤ 5 | ≤ 5 | ≤ 5 | – | –
C=CS(=O)(=O)NC1CCN(C(=O)COc2cc(S(N)(=O)=O)c(Cl)cc2Cl)CC1 [Ras-047] | ≤ 5 | ≤ 5 | ≤ 5 | – | –
C=CS(=O)(=O)NC1CCN(C(=O)COc2cc(OCCO)c(Cl)cc2Cl)CC1 [Ras-048] | ≤ 5 | ≤ 5 | 5 to 20 | – | –
C=CS(=O)(=O)NC1CCN(C(=O)COc2cc(C(=O)NCCO)c(Cl)cc2Cl)CC1 [Ras-049] | ≤ 5 | ≤ 5 | ≤ 5 | – | –
C=CS(=O)(=O)NC1CCN(C(=O)COc2cc(CO)c(Cl)cc2Cl)CC1 [Ras-050] | ≤ 5 | ≤ 5 | 5 to 20 | – | –
C=CS(=O)(=O)NC1CCN(C(=O)COc2ccc(Cl)cc2CO)CC1 [Ras-051] | ≤ 5 | ≤ 5 | 5 to 20 | – | –
C=CS(=O)(=O)NC1CCN(C(=O)CN(C)c2cc(Cl)c(Cl)cc2I)CC1 [Ras-052] | ≤ 5 | ≤ 5 | 5 to 20 | – | –
C=CS(=O)(=O)NC1CCN(C(=O)COc2cc(Cl)c(Cl)cc2I)CC1 [Ras-053] | ≤ 5 | 5 to 20 | 40 to 60 | – | –
C=CS(=O)(=O)NC1CCN(C(=O)CNc2cc(Cl)c(Cl)cc2OC)CC1 [Ras-054] | ≤ 5 | 20 to 40 | > 60 | – | –
C=CS(=O)(=O)NC1CCN(C(=O)CNc2cc(Cl)c(Cl)cc2O)CC1 [Ras-055] | 5 to 20 | 20 to 40 | > 60 | +++++ (plate) (60% < +++++) | +++++ (plate) (60% < +++++)
C=CS(=O)(=O)NC1CCN(C(=O)COc2cc(-c3cn[nH]c3)c(Cl)cc2Cl)CC1 [Ras-056] | ≤ 5 | ≤ 5 | ≤ 5 | – | –
C=CS(=O)(=O)NC1CCN(C(=O)C(C)Oc2cc(CN)c(Cl)cc2Cl)CC1 (centres unmarked) [Ras-058] | ≤ 5 | ≤ 5 | ≤ 5 | – | –
C=CS(=O)(=O)NC1CCN(C(=O)CNc2cc(Cl)c(Cl)cc2CC)CC1 [Ras-059] | ≤ 5 | 5 to 20 | > 60 | +++++ (single) (60% < +++++) | +++++ (single) (60% < +++++)
C=CS(=O)(=O)NC1CCN(c2cc(-c3cc(Cl)c(Cl)cc3I)ccn2)CC1 [Ras-060] | ≤ 5 | ≤ 5 | ≤ 5 | – | –
C=CS(=O)(=O)NC1CCN(C(=O)COc2cc(NS(C)(=O)=O)c(Cl)cc2Cl)CC1 [Ras-061] | ≤ 5 | ≤ 5 | ≤ 5 | – | –
C=CC(=O)N1CCN(C(=O)CNc2cc(Cl)c(Cl)cc2OC)CC1 [Ras-062] | ≤ 5 | ≤ 5 | 20 to 40 | +++ (single) (20%< +++ <=40%) | +++ (single) (20%< +++ <=40%)
